# Test results from patent publication US4464385A, “Treatment of diabetic complications with hydantoins” (Alcon Laboratories, Inc., priority 1982, dated 1984).
# System: membrane bound cytochrome containing oxidoreductase enzymes
# Assay: In vivo conversion of the methylthio group to methylsulfinyl
# Conditions: enzymes common to liver, kidney and lung
substance,measurement,value
"dl-spiro-(6-methylthio-chroman-4,4'-imidazolidine)-2',5'-dione",conversion of methylthio group to methylsulfinyl derivative,converted to the methylsulfinyl derivative
